The target of data set [1] is T1, Mu-type opioid receptor (Homo sapiens, UniProt P35372). Kind of data set: Inhibition of mu opioid receptor (unknown origin) using DAMGO by high content imaging beta-arrestin translocation assay.
The target of data set [2] is T2, Delta-type opioid receptor (Homo sapiens, UniProt P41143). Kind of data set: Inhibition of delta opioid receptor (unknown origin) using SNC-80 by high content imaging beta-arrestin translocation assay.
Data set [3] addresses T3, Kappa-type opioid receptor (Homo sapiens, UniProt P41145). Kind of data set: Inhibition of kappa opioid receptor (unknown origin) using dynorphin A by DiscoveryRx b-arrestin PathHunter assay.
The test system of data set [4] is CHO. Put plainly: Selectivity ratio of Ki for delta opioid receptor (unknown origin) expressed in CHO cell membranes to Ki for kappa opioid receptor (unknown origin) expressed in CHO cell membranes. It is filed as cell-based. The note with it: Homo sapiens.
Data set [5] has as its system CHO. Kind of data set: Selectivity ratio of Ki for mu opioid receptor (unknown origin) expressed in CHO cell membranes to Ki for kappa opioid receptor (unknown origin) expressed in CHO cell membranes. It is filed as cell-based. Conditions: Homo sapiens.
Data set [6] concerns the target T3, Kappa-type opioid receptor. Put plainly: Inhibition of kappa opioid receptor (unknown origin) using dynorphin A by high content imaging beta-arrestin translocation assay.
Data set [7] addresses T1, Mu-type opioid receptor. Put plainly: Agonist activity at human cloned mu opioid receptor expressed in CHO cells assessed as stimulation of [35S]-GTP[gammaS] binding. It is filed as cell-based. A general note: GTPγS is a poorly hydrolysed GTP analogue; its binding reports G protein activation.
Data set [8] deals with T3, Kappa-type opioid receptor. Put plainly: Agonist activity at human cloned kappa opioid receptor expressed in CHO cells assessed as stimulation of [35S]-GTP[gammaS] binding. It is filed as functional, cell-based.
In data set [9] the target is T2, Delta-type opioid receptor. Put plainly: Agonist activity at human cloned delta opioid receptor expressed in CHO cells assessed as stimulation of [35S]-GTP[gammaS] binding. It is filed as functional, cell-based.
For data set [10], the target named is T3, Kappa-type opioid receptor. Kind of data set: Antagonist activity at human cloned kappa opioid receptor expressed in CHO cells assessed as inhibition of U50488-stimulated [35S]-GTP[gammaS] binding. It is filed as functional, cell-based.
Data set [11] deals with Mu-type opioid receptor (Cavia porcellus) (UniProt P97266). Kind of data set: Antagonist activity at mu opioid receptor in guinea pig caudate assessed as inhibition of DAMGO-stimulated [35S]-GTP[gammaS] binding. It is filed as functional.
Mu-type opioid receptor (Cavia porcellus), sequence (P97266 whole entry): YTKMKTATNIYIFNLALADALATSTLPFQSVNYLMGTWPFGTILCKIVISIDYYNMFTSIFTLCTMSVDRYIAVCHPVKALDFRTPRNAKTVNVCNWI
The species entered for a further data set is Cavia porcellus. Kind of data set: Antagonist activity at delta opioid receptor in guinea pig caudate assessed as inhibition of SNC-80-stimulated [35S]-GTP[gammaS] binding.
In data set [12] the target is Kappa-type opioid receptor (Cavia porcellus) (UniProt P41144).
Kappa-type opioid receptor (Cavia porcellus), sequence (P41144 whole entry): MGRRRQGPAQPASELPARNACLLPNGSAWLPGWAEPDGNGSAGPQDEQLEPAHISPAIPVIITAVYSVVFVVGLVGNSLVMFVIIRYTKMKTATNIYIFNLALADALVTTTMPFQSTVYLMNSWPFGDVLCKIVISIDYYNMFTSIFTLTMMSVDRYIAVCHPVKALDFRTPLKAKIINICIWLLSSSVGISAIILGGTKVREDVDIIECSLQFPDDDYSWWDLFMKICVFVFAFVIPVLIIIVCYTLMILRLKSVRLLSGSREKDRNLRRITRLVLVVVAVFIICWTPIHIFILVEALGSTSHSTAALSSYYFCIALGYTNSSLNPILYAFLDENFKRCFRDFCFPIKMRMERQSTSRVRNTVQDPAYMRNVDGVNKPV
Data set [13] has as its target Sodium-dependent noradrenaline transporter (Homo sapiens, UniProt P23975). Put plainly: Binding affinity to NET (unknown origin).
For the next data set, the target named is Histamine H1 receptor (Homo sapiens, UniProt P35367). Put plainly: Binding affinity to histamine H1 receptor (unknown origin).
Histamine H1 receptor, sequence (P35367 whole entry): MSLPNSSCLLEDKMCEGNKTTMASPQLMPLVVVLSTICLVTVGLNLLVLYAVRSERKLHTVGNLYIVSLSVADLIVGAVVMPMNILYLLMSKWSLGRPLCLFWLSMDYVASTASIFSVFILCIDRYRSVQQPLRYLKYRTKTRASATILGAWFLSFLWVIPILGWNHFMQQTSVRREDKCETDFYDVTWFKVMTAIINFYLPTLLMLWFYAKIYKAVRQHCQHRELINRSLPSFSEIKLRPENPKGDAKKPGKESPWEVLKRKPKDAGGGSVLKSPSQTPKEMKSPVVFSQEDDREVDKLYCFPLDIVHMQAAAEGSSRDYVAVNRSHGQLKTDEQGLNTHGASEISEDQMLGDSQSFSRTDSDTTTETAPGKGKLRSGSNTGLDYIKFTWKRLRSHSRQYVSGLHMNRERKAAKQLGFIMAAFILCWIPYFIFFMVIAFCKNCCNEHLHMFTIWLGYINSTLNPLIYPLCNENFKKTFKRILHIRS
Data set [14] in a line: Drug metabolism in mouse liver microsomes assessed as compound remaining after 1 hr. It is filed as ADME. Conditions: read-out: Drug metabolism. Background: Microsomes from liver hold many membrane-bound enzymes, among them those of drug oxidation.
For the next data set, the target named is D(3) dopamine receptor (Homo sapiens, UniProt P35462). Put plainly: Binding affinity to dopamine D3 receptor (unknown origin).
D(3) dopamine receptor, sequence (P35462 whole entry): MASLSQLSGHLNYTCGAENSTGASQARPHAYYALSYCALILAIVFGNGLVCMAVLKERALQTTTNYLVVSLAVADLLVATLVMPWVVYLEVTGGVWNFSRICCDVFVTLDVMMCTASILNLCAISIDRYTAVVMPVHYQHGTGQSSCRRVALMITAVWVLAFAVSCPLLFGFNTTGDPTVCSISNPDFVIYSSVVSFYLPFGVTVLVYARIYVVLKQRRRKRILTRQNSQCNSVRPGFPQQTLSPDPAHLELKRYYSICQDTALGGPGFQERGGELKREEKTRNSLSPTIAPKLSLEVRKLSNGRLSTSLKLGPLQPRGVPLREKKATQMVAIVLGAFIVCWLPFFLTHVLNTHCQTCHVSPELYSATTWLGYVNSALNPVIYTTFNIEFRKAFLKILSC
A further data set is filed under the species Mus musculus. Put plainly: Antinociceptive activity in mouse assessed as reversal of U50488-induced withdrawl latencies. It is filed as functional.
Data set [15] addresses T3, Kappa-type opioid receptor. Put plainly: Antagonist activity at human cloned kappa opioid receptor expressed in CHO cells assessed as inhibition of Dynorphin A-stimulated [35S]-GTP[gammaS] binding. It is filed as functional, cell-based.
Data set [16] has as its target T1, Mu-type opioid receptor. Kind of data set: Antagonist activity at human cloned mu opioid receptor expressed in CHO cells assessed as inhibition of DAMGO-stimulated [35S]-GTP[gammaS] binding. It is filed as cell-based.

Peptide text beside a SMILES is read from it. Where only a bound is given, the exact number is not on record here.

T2 sequence (P41143 whole entry): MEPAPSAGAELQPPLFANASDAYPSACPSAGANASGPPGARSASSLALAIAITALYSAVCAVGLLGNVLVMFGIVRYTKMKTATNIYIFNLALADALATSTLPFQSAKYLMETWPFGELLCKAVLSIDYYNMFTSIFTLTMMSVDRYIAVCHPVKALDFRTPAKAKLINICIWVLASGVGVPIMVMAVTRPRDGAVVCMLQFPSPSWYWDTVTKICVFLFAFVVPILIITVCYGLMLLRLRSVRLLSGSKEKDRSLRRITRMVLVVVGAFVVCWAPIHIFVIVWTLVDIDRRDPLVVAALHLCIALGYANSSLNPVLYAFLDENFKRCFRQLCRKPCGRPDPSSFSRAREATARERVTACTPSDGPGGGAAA
T1 sequence (P35372 whole entry): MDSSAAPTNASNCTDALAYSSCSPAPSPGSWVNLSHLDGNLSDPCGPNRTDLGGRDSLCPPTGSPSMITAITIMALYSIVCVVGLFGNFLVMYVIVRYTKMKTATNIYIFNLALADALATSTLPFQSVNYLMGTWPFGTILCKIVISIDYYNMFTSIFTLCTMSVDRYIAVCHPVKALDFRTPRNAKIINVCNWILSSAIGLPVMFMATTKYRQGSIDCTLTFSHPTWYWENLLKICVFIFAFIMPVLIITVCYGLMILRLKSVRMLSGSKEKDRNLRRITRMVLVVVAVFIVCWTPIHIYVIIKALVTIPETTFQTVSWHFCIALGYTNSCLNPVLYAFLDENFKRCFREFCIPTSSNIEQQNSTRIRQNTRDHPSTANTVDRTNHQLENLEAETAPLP
T3 sequence (P41145 whole entry): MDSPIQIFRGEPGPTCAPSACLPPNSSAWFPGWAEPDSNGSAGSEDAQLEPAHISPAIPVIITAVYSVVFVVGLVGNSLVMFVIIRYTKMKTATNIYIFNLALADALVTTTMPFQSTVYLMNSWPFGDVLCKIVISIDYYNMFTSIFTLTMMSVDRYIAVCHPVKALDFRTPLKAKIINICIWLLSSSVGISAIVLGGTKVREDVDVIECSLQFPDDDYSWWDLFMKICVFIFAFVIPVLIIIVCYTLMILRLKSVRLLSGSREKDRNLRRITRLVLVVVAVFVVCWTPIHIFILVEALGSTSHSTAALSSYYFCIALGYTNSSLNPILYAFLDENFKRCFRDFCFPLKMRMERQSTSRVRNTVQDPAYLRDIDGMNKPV
Sodium-dependent noradrenaline transporter, sequence (P23975 whole entry): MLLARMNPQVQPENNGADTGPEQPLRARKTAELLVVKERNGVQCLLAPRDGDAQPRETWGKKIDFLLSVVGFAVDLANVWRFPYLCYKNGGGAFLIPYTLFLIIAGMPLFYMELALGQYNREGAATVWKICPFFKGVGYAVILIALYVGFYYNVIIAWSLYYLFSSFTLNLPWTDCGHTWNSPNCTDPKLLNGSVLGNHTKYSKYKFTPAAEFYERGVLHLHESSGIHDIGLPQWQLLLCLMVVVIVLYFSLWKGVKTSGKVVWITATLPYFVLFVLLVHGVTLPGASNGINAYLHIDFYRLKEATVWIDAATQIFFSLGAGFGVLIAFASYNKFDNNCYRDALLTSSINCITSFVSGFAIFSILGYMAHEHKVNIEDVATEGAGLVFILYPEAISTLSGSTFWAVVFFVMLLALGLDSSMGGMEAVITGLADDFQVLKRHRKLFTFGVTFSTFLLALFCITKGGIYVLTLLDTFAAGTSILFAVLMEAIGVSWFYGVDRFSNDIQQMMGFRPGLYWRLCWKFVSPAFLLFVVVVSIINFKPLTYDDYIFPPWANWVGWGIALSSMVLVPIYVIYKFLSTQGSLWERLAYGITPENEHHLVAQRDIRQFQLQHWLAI

As usually defined, the IC50 is the point on the concentration scale where inhibition reaches its midpoint. Lower therefore signals greater potency. For `Cc1ccnc2c1n1cccc1c(=O)n2CC(=O)NCCCN1CCN(c2ccc(Cl)cc2)CC1`, the half-inhibitory concentration (IC50) against Mu-type opioid receptor [1] was over 32 µM; in data set [2], over 32 µM; in data set [3], 690 nM.

For `CC[C@H](C)[C@@H]1NC(=O)[C@H](CCCNC(=N)N)NC(=O)[C@@H](NC(=O)[C@H](Cc2ccccc2)NC(=O)CNC(=O)CNC(=O)[C@H](Cc2ccc(O)cc2)NCc2ccccc2)CC(=O)NC[C@@H](C(=O)N[C@@H](CCCNC(=N)N)C(=O)N2CCC[C@H]2C(=O)N[C@@H](CCCCN)C(N)=O)NC1=O`, the Ratio Ki is over 330 in the data set on CHO [4] and 194 in the data set on CHO [5].

For `COc1ccc(N2CCN(CCCNC(=O)Cn3c(=O)c4cccn4c4cccnc43)CC2)cc1`, the IC50 is over 32 µM at Mu-type opioid receptor [1], over 32 µM in [2], 1950 nM in data set [3] and 1300 nM in data set [6].

By EC50 is commonly meant the concentration needed to bring the measured effect to its halfway point. On to `CC1CN(CCCc2ccccc2)C2C[C@H](N)CC1(c1cccc(O)c1)C2` (stereo partly specified), for which the concentration for a half-maximal effect (EC50) at Mu-type opioid receptor [7] was 19.5 µM; in data set [8] it was over 5 µM; in data set [9], 7.5 µM. For the same compound, the Ke in [10] was determined as 10.1 nM.

In the case of `Cc1ccc(S(=O)(=O)NCc2ccc(C(=O)NCCCN(Cc3ccccc3)C(C)C)cc2)cc1`, the IC50 on Mu-type opioid receptor [1] was over 32 µM; in data set [2] it was over 32 µM; in data set [3], over 20000 nM; in data set [6] it was over 32000 nM.

In the case of `CC(C)[C@@H](CN1CC[C@@](C)(c2cccc(O)c2)[C@@H](C)C1)NC(=O)[C@H](N)Cc1ccc(O)cc1`, the Ke was determined as 12 nM in [11], 334 nM in the data set filed under Cavia porcellus and 44.6 nM in [12].

Take `COc1ccc(N2CCN(CCCNC(=O)Cn3c(=O)c4cccn4c4ccccc43)CC2)cc1`: the half-maximal inhibitory concentration (IC50) (on Mu-type opioid receptor [1]; in data set [2]) was over 32 µM each time.

For orientation: Ki means a measure of affinity in units of concentration, obtained from inhibition or displacement. A low value points to a stronger hold on the target. In the case of `COc1ccc(N2CCN(CCCNC(=O)Cn3c(=O)c4cccn4c4c(C)ccnc43)CC2)cc1`, the 50% inhibitory concentration (IC50) (against Mu-type opioid receptor [1]; in data set [2]) was over 32 µM each time. The inhibitory constant (Ki) (in data set [13]; on Histamine H1 receptor; on D(3) dopamine receptor) was under 1000 nM in each case. In [14], the remaining at 1 h stood at 7.34%.

On to `CC(C)[C@@H](CN1CC[C@@](C)(c2cccc(O)c2)[C@@H](C)C1)NC(=O)[C@@H](N)Cc1ccc(O)cc1`, for which the Ke in the data set filed under Cavia porcellus was found to be 452 nM.

On to `CC(C)[C@@H](CN1CC[C@@](C)(c2cccc(O)c2)[C@@H](C)C1)NC(=O)[C@@H]1Cc2ccc(O)cc2CN1`, for which the Ke in the data set filed under Cavia porcellus is 327 nM.

In the case of `CO[C@H]1Cc2ccc(O)cc2C(C)(C)[C@@H]1N`, on Mu-type opioid receptor [7], the Activity was 31.6% and the concentration giving a half-maximal response (EC50) came to 0.234 µM.

`CC(C)[C@@H](CN1CC[C@@](C)(c2cccc(O)c2)[C@@H](C)C1)NC(=O)[C@H]1Cc2ccc(O)cc2CN1C`: in the data set listed under Cavia porcellus, the Ke was over 300 nM.

With `C[C@@H]1NC(=O)[C@@H]2CCCN2C(=O)[C@H](Cc2ccccc2)NC(=O)[C@H](Cc2c[nH]c3ccccc23)NC1=O` (cyclo(AWFP)), the Time in the data set listed under Mus musculus is under 18 h.

On to `CCc1ccc(S(=O)(=O)NCc2ccc(C(=O)NCCN(Cc3ccccc3)C(C)C)cc2)cc1`, for which the half-maximal inhibitory concentration (IC50) against Mu-type opioid receptor [1] is over 32 µM; in data set [2] it was over 32 µM; in data set [3], 1120 nM.

Consider `CC(=O)N1Cc2cc(O)ccc2C[C@@H]1C(=O)N[C@H](CN1CC[C@@](C)(c2cccc(O)c2)[C@@H](C)C1)C(C)C`, for which the Ke in the data set listed under Cavia porcellus is over 300 nM.

The term Kb denotes the equilibrium dissociation constant of an antagonist, usually derived from a functional assay. For the compound `C[C@@H]1NC(=O)[C@H](Cc2c[nH]c3ccccc23)NC(=O)[C@H](Cc2ccccc2)NC(=O)[C@@H]2CCCN2C1=O` (cyclo(APFW)), the Kb in data set [15] stood at 2.6 nM. Besides, the Ke at Mu-type opioid receptor [16] was determined as 7.3 nM. The Time in the data set filed under Mus musculus is under 18 h.

The values are drawn from ChEMBL document CHEMBL3259577, “Antagonists of the kappa opioid receptor” (Bioorg Med Chem Lett, 2014).
